The subject of this assay is four tumor cell lines. The assay can be described thus: In vitro tumor cell growth inhibition by AMXT 1501. In kind it is cell-based. The conditions noted are these: equivalent of 51 nM. The source says: See Burns, M. R., et al., J Med Chem 52, 1983-1993 (2009), the entire content of which is incorporated herein by reference.

Molecules are shown by their SMILES.

Turning to `CCCCCCCCCCCCCCCC(=O)NCCCC[C@@H](N)C(=O)NCCCNCCCCNCCCN` [AMXT 1501, D-lys(palmitoyl)-spermine], the “EC50 expressed per tissue weight” value was 0.029 µg/g. For the same compound, the EC50 (read-out: EC50 as equivalent plasma concentration) worked out at 0.028 µg/mL.
